The results in this text go back to ChEMBL document CHEMBL4831486, “Design, synthesis and biological evaluation of pleuromutilin-Schiff base hybrids as potent anti-MRSA agents in vitro and in vivo” (Eur J Med Chem, 2021).

One may read the MBC as the smallest concentration meeting the test's criterion for killing. What is called MIC is the least concentration at which growth counts as inhibited.

Data set [1] relates to Staphylococcus aureus. In words: Bactericidal activity against Staphylococcus aureus 144 assessed as inhibition of bacterial growth measured after 96 hrs by broth dilution method. It counts as functional.
Data set [2] has as its system Staphylococcus aureus. In words: Bactericidal activity against Methycillin-resistant Staphylococcus aureus ATCC 43300 assessed as inhibition of bacterial growth measured after 96 hrs by broth dilution method. It counts as functional. On the technique in general: In broth dilution the organism is exposed to a series of concentrations in liquid medium.
Data set [3] has as its system Staphylococcus aureus. In words: Antibacterial activity against methicillin-resistant Staphylococcus aureus ATCC 43300 assessed as post antibiotic effect by measuring time required for increase in 1 log10 CFU/ml of bacteria at 4X MIC incubated for 2 hrs followed by compound washout and measured after 20 hrs by time-kill assay (reference value: 2.04 hrs). It counts as functional.

Data set [4] deals with Escherichia coli. Nature of the data set: Bactericidal activity against Escherichia coli ATCC 25922 assessed as inhibition of bacterial growth measured after 96 hrs by broth dilution method. It counts as functional.
The test system of data set [5] is Staphylococcus aureus. In words: Antibacterial activity against Staphylococcus aureus ATCC 29213 assessed as inhibition of bacterial growth measured after 24 hrs by broth dilution method. It counts as functional.
The subject of data set [6] is Staphylococcus aureus. Nature of the data set: Antibacterial activity against Staphylococcus aureus 144 assessed as inhibition of bacterial growth measured after 24 hrs by broth dilution method. It counts as functional.
Data set [7] deals with Staphylococcus aureus. In words: Bactericidal activity against Staphylococcus aureus AD3 assessed as inhibition of bacterial growth measured after 96 hrs by broth dilution method. It counts as functional.
In another data set the test system is HepG2. In words: Cytotoxicity against human HepG2 cells assessed as reduced cell viability at 4 ug/ml measured after 16 hrs by MTT assay. It counts as cell-based. To be noted: hepg2, 16 h, dose 4 µg/ml.
Data set [8] relates to Staphylococcus aureus. Nature of the data set: Antibacterial activity against methicillin-resistant Staphylococcus aureus ATCC 43300 assessed as post antibiotic effect by measuring time required for increase in 1 log10 CFU/ml of bacteria at 2X MIC incubated for 2 hrs followed by compound washout and measured after 20 hrs by time-kill assay (reference value: 2.04 hrs). It counts as functional.

In data set [9] the test system is RAW264.7. In words: Cytotoxicity against mouse RAW264.7 cells assessed as reduced cell viability at 4 ug/ml measured after 16 hrs by MTT assay. It counts as cell-based. To be noted: raw264.7, 16 h, dose 4 µg/ml. (Tetrazolium dyes change colour on reduction, which living cells bring about.)
Data set [10] has as its system Staphylococcus aureus. Nature of the data set: Antibacterial activity against methicillin-resistant Staphylococcus aureus ATCC 43300 infected in neutropenic CD1 mouse model of thigh infection assessed as reduction in bacterial colony forming unit in thigh at 20 mg/kg, iv qd measured after 24 hrs relative to control. It counts as functional.
The subject of data set [11] is Staphylococcus aureus. Nature of the data set: Antibacterial activity against methicillin-resistant Staphylococcus aureus ATCC 43300 assessed as inhibition of bacterial growth measured after 8 passages at sub-MIC concentration incubated for 24 hrs by resistant development assay. It counts as functional.
The subject of data set [12] is Staphylococcus aureus. Nature of the data set: Antibacterial activity against Staphylococcus aureus AD3 assessed as inhibition of bacterial growth measured after 24 hrs by broth dilution method. It counts as functional.
Data set [13] concerns Staphylococcus aureus. Nature of the data set: Bactericidal activity against methicillin-resistant Staphylococcus aureus ATCC 43300 assessed as reduction in bacterial growth at 2X MIC measured for 24 hrs by time kill assay. It counts as functional. Details: scale not given: the % may be the effect or the level left.
Data set [14] relates to Escherichia coli. Nature of the data set: Antibacterial activity against Escherichia coli ATCC 25922 assessed as inhibition of bacterial growth measured after 24 hrs by broth dilution method. It counts as functional.
Data set [15] concerns Staphylococcus aureus. In words: Antibacterial activity against Methycillin-resistant Staphylococcus aureus ATCC 43300 assessed as inhibition of bacterial growth measured after 24 hrs by broth dilution method. It counts as functional.
In data set [16] the test system is Staphylococcus aureus. Nature of the data set: Bactericidal activity against Staphylococcus aureus ATCC 29213 assessed as inhibition of bacterial growth measured after 96 hrs by broth dilution method. It counts as functional.
The subject of data set [17] is RAW264.7. In words: Cytotoxicity against mouse RAW264.7 cells assessed as reduced cell viability at 4 ug/ml measured after 16 hrs by MTT assay relative to control. It counts as cell-based. To be noted: raw264.7, 16 h, at 4 µg/mL.
Data set [18] concerns Staphylococcus aureus. Nature of the data set: Antibacterial activity against methicillin-resistant Staphylococcus aureus ATCC 43300 assessed as post antibiotic effect by measuring time required for increase in 1 log10 CFU/ml of bacteria at 2X MIC incubated for 2 hrs followed by compound washout and measured after 20 hrs by time-kill assay (reference value: 2.44 hrs). It counts as functional.

The test system of data set [19] is Staphylococcus aureus. In words: Antibacterial activity against methicillin-resistant Staphylococcus aureus ATCC 43300 assessed as post antibiotic effect by measuring time required for increase in 1 log10 CFU/ml of bacteria at 4X MIC incubated for 2 hrs followed by compound washout and measured after 20 hrs by time-kill assay (reference value: 2.44 hrs). It counts as functional.

Values after ≈ are worked out from the molar mass of the structure shown. Where only a bound is given, the exact number is not on record here.

As to `C=C[C@]1(C)C[C@@H](OC(=O)CSc2nnc(C)n2/N=C/c2ccc(-c3ccccn3)cc2)[C@]2(C)[C@H](C)CC[C@]3(CCC(=O)[C@H]32)[C@@H](C)[C@@H]1O`, the MBC with Staphylococcus aureus [1] was 4 µg/mL (≈ 6.1 µM); in the data set with Staphylococcus aureus [2], 1 µg/mL (≈ 1.52 µM); in the data set on Escherichia coli [4], greater than 64 µg/mL; in the data set with Staphylococcus aureus [7] it was 2 µg/mL (≈ 3.05 µM); in the data set with Staphylococcus aureus [16], 1 µg/mL (≈ 1.52 µM). For the same compound, the Time was determined as 4.27 h in the data set on Staphylococcus aureus [3] and 4.06 h in the data set on Staphylococcus aureus [8]. The MIC was 0.5 µg/mL (≈ 0.762 µM) in the data set with Staphylococcus aureus [5]; 1 µg/mL (≈ 1.52 µM) in the data set on Staphylococcus aureus [6]; 2 µg/mL (≈ 3.05 µM) in the data set with Staphylococcus aureus [11]; 0.5 µg/mL (≈ 0.762 µM) in the data set on Staphylococcus aureus [12]; greater than 64 µg/mL in the data set on Escherichia coli [14]; 0.25 µg/mL (≈ 0.381 µM) in the data set on Staphylococcus aureus [15]. In addition, the Activity entry in the data set on HepG2 is listed as “Non-Toxic”; in the data set on RAW264.7 [9] it was “Non-Toxic”; in the data set with Staphylococcus aureus [10], -2.28 log10CFU/ml; in the data set with Staphylococcus aureus [13], 99.9%.
Take `C=C[C@]1(C)C[C@@H](OC(=O)CSc2nnc(C)n2/N=C/c2ccc(C)cc2)[C@]2(C)[C@H](C)CC[C@]3(CCC(=O)[C@H]32)[C@@H](C)[C@@H]1O`: the MBC in the data set with Staphylococcus aureus [1] was 4 µg/mL (≈ 6.75 µM); in the data set on Staphylococcus aureus [2] it was 1 µg/mL (≈ 1.69 µM); in the data set on Escherichia coli [4], greater than 64 µg/mL; with Staphylococcus aureus [7], 4 µg/mL (≈ 6.75 µM); in the data set on Staphylococcus aureus [16], 2 µg/mL (≈ 3.37 µM). The MIC is 1 µg/mL (≈ 1.69 µM) with Staphylococcus aureus [5]; 2 µg/mL (≈ 3.37 µM) in the data set with Staphylococcus aureus [6]; 1 µg/mL (≈ 1.69 µM) with Staphylococcus aureus [12]; greater than 64 µg/mL in the data set on Escherichia coli [14]; 0.5 µg/mL (≈ 0.843 µM) with Staphylococcus aureus [15]. In addition, the Activity was 30% in the data set with RAW264.7 [17] and “Non-Toxic” in the data set with HepG2.
As to `C=C[C@]1(C)C[C@@H](OC(=O)CSCCN(CC)CC)[C@]2(C)[C@H](C)CC[C@]3(CCC(=O)[C@H]32)[C@@H](C)[C@@H]1O` [TIAMULIN], the MBC with Staphylococcus aureus [1] is 2 µg/mL (≈ 4.05 µM); with Staphylococcus aureus [2], 1 µg/mL (≈ 2.03 µM); in the data set on Escherichia coli [4] it was greater than 64 µg/mL; in the data set on Staphylococcus aureus [7], 2 µg/mL (≈ 4.05 µM); in the data set on Staphylococcus aureus [16], 1 µg/mL (≈ 2.03 µM). Moreover, the MIC in the data set with Staphylococcus aureus [5] was 1 µg/mL (≈ 2.03 µM); in the data set with Staphylococcus aureus [6] it was 1 µg/mL (≈ 2.03 µM); with Staphylococcus aureus [11] it was 32 µg/mL (≈ 64.8 µM); in the data set on Staphylococcus aureus [12] it was 1 µg/mL (≈ 2.03 µM); in the data set on Escherichia coli [14] it was greater than 64 µg/mL; in the data set with Staphylococcus aureus [15] it was 0.5 µg/mL (≈ 1.01 µM). Besides, the Activity in the data set with Staphylococcus aureus [10] was -1.4 log10CFU/ml. Also, the Time in the data set with Staphylococcus aureus [18] amounted to 1.72 h; in the data set on Staphylococcus aureus [19], 2.14 h.
